These are literature values, as cited in patent publication US20250235394A1, “BIOFILM-TARGETING NANOPARTICLES TO INCREASE THE […] OF FLUORIDE” (The Regents of The University of Michigan, priority 2021, published 2025).

The conditions of the series: solution containing 226 ppm F as CaF2.

As for `[Ca+2].[F-].[F-]` [CaF2, calcium fluoride], the precipitation in solution entry was “precipitation of CaF2 promptly occurs”.
